Experimental data reported in US9533026B2, “Polypeptide compounds for inhibiting angiogenesis and tumor growth” (VasGene Therapeutics, Inc., priority 2004, dated 2017).

Columns and labels:
EphB4 = assay: EGF regulation of EphB4 in SCC15 cells with kinase inhibitors (Western blot); format: cell-based, human; settings: for EGF stimulated induction of EphB4: serum-starved SCC15, 10 ng/ml EGF, 24 h; for basal levels of EphB4: serum-starved SCC15, 24 h
Method: B) SCC15 cells were serum-starved for 24 h prior to an additional 24 incubation as indicated with or without EGF (10 ng/ml), 3 μM U73122, or 5 μM SH-5, 5 μM SP600125, […] LY294002, - - μM PD098095 or 5 μM SB203580. N/A indicates cultures that received equal volume of diluent (DMSO) only. Cell lysates were subjected to Western Blot with EphB4 monoclonal antibody. β-actin signal serves as control of protein loading and transfer.

HUVEC = assay: Endothelial cell tube (cord) formation on Matrigel; format: cell-based, human
Method: Cord formation assay of HUVEC in Matrigel™ (upper row). Cells in exponential growth phase were treated overnight with the indicated concentrations of EphB4 extracellular domain (ECD) prior to plating on Matrigel™. Cells were trypsinized and plated (1×10^5 cells/well) in a 24-well plate containing 0.5 ml Matrigel™. Shown are representative 20× phase contrast fields of cord formation after 8 hr plating on Matrigel™ in the continued presence of the test compounds as shown. Original magnification 200×. KS-SLK cells treated in a similar manner (middle row) in a cord formation assay on Matrigel™. […] After 7 days the plugs were removed, sectioned and stained with H&E to visualize cells migrating into the matrix.
Matrigel (60 μl of 10 mg/ml; Collaborative Lab #35423) is placed in each well of an ice-cold 96-well plate. The plate is allowed to sit at room temperature for 15 minutes then incubated at 37° C. for 30 minutes to permit the matrigel to polymerize. In the mean time, HUVECs are prepared in EGM-2 (Clonetic #CC3162) at a concentration of 2×10^5 cells/ml. The test compound is prepared at 2× the desired concentration (5 concentration levels) in the same medium. Cells (500 μl) and 2× drug (500 μl) is mixed and 200 μl of this suspension are placed in duplicate on the polymerized matrigel. After 24 h incubation, triplicate pictures are taken for each concentration using a Bioquant Image Analysis system. Drug effect (IC50) is assessed compared to untreated controls by measuring the length of cords formed and number of junctions.
Matrigel (60 μl of 10 mg/ml; Collaborative Lab, Cat. No. 35423) was placed in each well of an ice-cold 96-well plate. The plate was allowed to sit at room temperature for 15 minutes then incubated at 37° C. for 30 minutes to permit Matrigel to polymerize. In the mean time, human umbilical vein endothelial cells were prepared in EGM-2 (Clonetic, Cat. No. CC3162) at a concentration of 2×10^5 cells/ml. The test protein was prepared at 2× the desired concentration (5 concentration levels) in the same medium. Cells (500 μl) and 2× protein (500 μl) were mixed and 200 μl of this suspension were placed in duplicate on the polymerized Matrigel. After 24 h incubation, triplicate pictures were taken for each concentration using a Bioquant Image Analysis system. Protein addition effect (IC50) was assessed compared to untreated controls by measuring the length of cords formed and number of junctions.

human endothelial cells = assay: Endothelial cell chemotaxis / migration (Boyden chamber); format: cell-based; settings: umbilical cord and hepatic AECs or VECs; growth factor stimuli
Method: Migration is assessed using the 48-well Boyden chamber and 8 μm pore size collagen-coated (10 μg/ml rat tail collagen; Collaborative Laboratories) polycarbonate filters (Osmonics, Inc.). The bottom chamber wells receive 27-29 μl of DMEM medium alone (baseline) or medium containing chemo-attractant (bFGF, VEGF or Swiss 3T3 cell conditioned medium). The top chambers receive 45 μl of HUVEC cell suspension (1×10^6 cells/ml) prepared in DMEM+1% BSA with or without test compound. After 5 h incubation at 37° C., the membrane is rinsed in PBS, fixed and stained in Diff-Quick solutions. The filter is placed on a glass slide with the migrated cells facing down and cells on top are removed using a Kimwipe. The testing is performed in 4-6 replicates and five fields are counted from each well. Negative unstimulated control values are subtracted from stimulated control and drug treated values and data is plotted as mean migrated cell±S.D. IC50 is calculated from the plotted data.
Chemotaxis of HUVECs to VEGF was assessed using a modified Boyden chamber, transwell membrane filter inserts in 24 well plates, 6.5 mm diam, 8 μm pore size, 10 μm thick matrigel coated, polycarbonate membranes (BD Biosciences). The cell suspensions of HUVECs (2×10^5 cells/ml) in 200 μl of EBM were seeded in the upper chamber and the soluble EphB4 protein were added simultaneously with stimulant (VEGF or bFGF) to the lower compartment of the chamber and their migration across a polycarbonate filter in response to 10-20 ng/ml of VEGF with or without 100 nM-1 μM test compound was investigated. After incubation for 4-24 h at 37° C., the upper surface of the filter was scraped with swab and filters were fixed and stained with Diff Quick. Ten random fields at 200× mag were counted and the results expressed as mean # per field. Negative unstimulated control values were subtracted from stimulated control and protein treated sample values and the data was plotted as mean migrated cell±S.D. IC50 was calculated from the plotted data.

EphB4 receptor = assay: Cell-based EphB4 tyrosine kinase assay in PC3 cells; set-up: species or system human; settings: Ephrin B2-Fc ligand preincubated with protein
Method: All four proteins were also tested for their ability to block ligand-dependent dimerization and activation of Eph B4 receptor kinase in PC3 cells. The PC3 human prostate cancer cell line is known to express elevated levels of human Eph B4. Stimulation of PC3 cells with Ephrin B2 IgG Fc fusion protein leads to a rapid induction of tyrosine phosphorylation of the receptor. However, preincubation of the ligand with GCF2, GCF1 or GC, but not CF2 proteins suppresses subsequent EphB4 autophosphorylation.
The human prostate carcinoma cell line PC3 cells were maintained in RPMI medium with 10% dialyzed fetal calf serum and 1% penicillin/streptomycin/neomycin antibiotics mix. Cells were maintained at 37° C. in a humidified atmosphere of 5% CO2/95% air. Typically, cells were grown in 60 mm dishes until confluency and were either treated with mouse Ephrin B2-Fc fusion at 1 μg/ml in RPMI for 10 min to activate EphB4 receptor or plain medium as a control. To study the effect of different derivatives of soluble EphB4 ECD proteins on EphB4 receptor activation, three sets of cells were used. In the first set, cells were treated with various proteins (5 proteins; GC, GCF1, GCF2, GCF2-F, CF2) at 5 μg/ml for 20 min. In the second set of cells, prior to application, proteins were premixed with ephrinB2-Fc at 1:5 (EphB4 protein:B2-Fc) molar ratio, incubated for 20 min and applied on cells for 10 min. In the third set of cells, cells were first treated with the proteins for 20 min at 5 μg/ml, media was replaced with fresh media containing 1 μg/ml of EphrinB2-Fc and incubated for another 10 min.
After the stimulation, cells were immediately harvested with protein extraction buffer containing 20 mM Tris-HCl, pH 7.4, 150 mM NaCl, 1% (v/v) Triton X100, 1 mM EDTA, 1 mM PMSF, 1 mM Sodium vanadate. Protein extracts were clarified by centrifugation at 14,000 rpm for 20 min at 4° C. Clarified protein samples were incubated overnight with protein A/G coupled agarose beads pre-coated with anti-EphB4 monoclonal antibodies. The IP complexes were washed twice with the same extraction buffer containing 0.1% Triton X100. The immunoprecipitated proteins were solubilized in 1×SDS-PAGE sample loading buffer and separated on 10% SDS-PAGE. For EphB4 receptor activation studies, electroblotted membrane was probed with anti-pTyr specific antibody 4G10 at 1:1000 dilution followed by Protein G-HRP conjugate at 1:5000 dilutions.

EphrinB2 = target: T1, EphrinB2 (Homo sapiens, UniProt P52799); assay: Ephrin B2-AP binding to immobilized EphB4EC proteins; settings: B4 proteins immobilized on Ni2+-resin or nitrocellulose
T1 construct: protein fusion of Ephrin B2 ectodomain with placental alkaline phosphatase
T1 sequence (P52799 28-229 limits assumed): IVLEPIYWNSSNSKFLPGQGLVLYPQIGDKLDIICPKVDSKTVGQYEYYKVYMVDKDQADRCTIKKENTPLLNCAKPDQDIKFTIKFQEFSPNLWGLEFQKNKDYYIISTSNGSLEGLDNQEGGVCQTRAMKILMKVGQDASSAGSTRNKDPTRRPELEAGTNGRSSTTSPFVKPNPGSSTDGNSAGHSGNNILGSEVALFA
Method: 10 μl of Ni-NTA-Agarose were incubated in microcentrifuge tubes with 50 μl of indicated amount of B4ECv3 diluted in binding buffer BB (20 mM Tris-HCl, 0.15 M NaCl, 0.1% bovine serum albumin pH 8) After incubation for 30 min on shaking platform, Ni-NTA beads were washed twice with 1.4 ml of BB, followed by application of 50 μl of B2-AP in the final concentration of 50 nM. Binding was performed for 30 min on shaking platform, and then tubes were centrifuged and washed one time with 1.4 ml of BB. Amount of precipitated AP was measured colorimetrically after application of PNPP.
To confirm ability of the purified recombinant proteins to bind Ephrin B2, they were tested in an in vitro binding assay. As expected, GC, GCF1 and GCF2, but not CF2 are binding the cognate ligand Ephrin B2 as confirmed by interaction between Ephrin B2-alkaline phosphatase (Ephrin B2-AP) fusion protein with the B4 proteins immobilized on Ni^2+-resin or on nitrocellulose membrane (FIG. 17).

## COc1cccc(-c2cc(=O)c3ccccc3o2)c1N [PD098095]
EphB4
  EGF stimulated induction of EphB4: no discernible effect
  basal levels of EphB4: reduced

## C[S+]([O-])c1ccc(-c2nc(-c3ccncc3)c(-c3ccc(F)cc3)[nH]2)cc1 (centres unmarked) [SB203580]
EphB4
  basal levels of EphB4: increased

## CCCCCCCCCCCCCCCCCCOC[C@H](COP(=O)(O)O[C@H]1[C@H](O)[C@@H](O)[C@H](O)C[C@H]1OC)OC [SH-5]
EphB4
  EGF stimulated induction of EphB4: blocked
  basal levels of EphB4: reduced

## COc1ccc2c(c1)CC[C@@H]1[C@@H]2CC[C@]2(C)[C@@H](NCCCCCCN3C(=O)C=CC3=O)CC[C@@H]12 [U73122]
EphB4
  EGF stimulated induction of EphB4: blocked
  basal levels of EphB4: reduced

## B2EC-FC: Ephrin B2 extracellular domain fused to human IgG1 Fc fragment, SEQ ID NO:5
HUVEC
  endothelial cell tube / tubule / cord formation: inhibition
Human endothelial cells
  chemotaxis of human endothelial cells: blocked chemotaxis

B1: B2EC: soluble extracellular domain of human Ephrin B2, SEQ ID NO:3 (protein)
chain: MAVRRDSVWKYCWGVLMVLCRTAISKSIVLEPIYWNSSNSKFLPGQGLVLYPQIGDKLDIICPKVDSKTVGQYEYYKVYMVDKDQADRCTIKKENTPLLNCAKPDQDIKFTIKFQEFSPNLWGLEFQKNKDYYIISTSNGSLEGLDNQEGGVCQTRAMKILMKVGQDASSAGSTRNKDPTRRPELEAGTNGRSSTTSPFVKPNPGSSTDGNSAGHSGNNILGSEVGSHHHHHH
modifications: Recombinant B2EC protein
Human endothelial cells
  chemotaxis of human endothelial cells: blocked chemotaxis

B2: GC: EphB4EC deletion variant, globular domain and Cys-rich domain, 6xHis tagged, SEQ ID NO:12 (protein)
chain: MELRVLLCWASLAAALEETLLNTKLETADLKWVTFPQVDGQWEELSGLDEEQHSVRTYEVCEVQRAPGQAHWLRTGWVPRRGAVHVYATLRFTMLECLSLPRAGRSCKETFTVFYYESDADTATALTPAWMENPYIKVDTVAAEHLTRKRPGAEATGKVNVKTLRLGPLSKAGFYLAFQDQGACMALLSLHLFYKKCAQLTVNLTRFPETVPRELVVPVAGSCVVDAVPAPGPSPSLYCREDGQWAEQPVTGCSCAPGFEAAEGNTKCRACAQGTFKPLSGEGSCQPCPANSHSNTIGSAVCQCRVGYFRARTDPRGAPCTTPPSAHHHHHH
modifications: Recombinant B4EC-GC
EphB4 receptor
  EphB4 autophosphorylation: suppresses
EphrinB2
  binding the cognate ligand Ephrin B2: binding

B3: GCF1: EphB4EC variant, globular, Cys-rich and the first FNIII domain, 6xHis tagged, SEQ ID NO:13 (protein)
chain: MELRVLLCWASLAAALEETLLNTKLETADLKWVTFPQVDGQWEELSGLDEEQHSVRTYEVCEVQRAPGQAHWLRTGWVPRRGAVHVYATLRFTMLECLSLPRAGRSCKETFTVFYYESDADTATALTPAWMENPYIKVDTVAAEHLTRKRPGAEATGKVNVKTLRLGPLSKAGFYLAFQDQGACMALLSLHLFYKKCAQLTVNLTRFPETVPRELVVPVAGSCVVDAVPAPGPSPSLYCREDGQWAEQPVTGCSCAPGFAEGNTKCRACAQGTFKPLSGEGSCQPCPANSHSNTIGSAVCQCRVGYFRARTDPRGAPCTTPPSAPRSVVSRLNGSSLHLEWSAPLESGGREDLTYALRCRECRPGGSCAPCGGDLTFDPGPRDLVEPWVVVRGLRPDFTYTFEVTALNGVSSLATGPVPFEPVNVHHHHHH
modifications: Recombinant GCF
EphB4 receptor
  EphB4 autophosphorylation: suppresses
EphrinB2
  binding the cognate ligand Ephrin B2: binding
